Assay results taken from patent publication US11807835B2, “Detergent compositions containing a stabilized enzyme by phosphonates” (ECOLAB USA INC., priority 2016, dated 2023).

How the values were obtained:
lipase = experiment: Lipase activity retention in detergent use solution (4000 ppm, 5 GPG water; p-nitrophenyl valerate, TRIS buffer pH 8.0); format: biochemical; conditions: for Relative Lipase Enzyme Activity in a Use Solution: Table 6E, room temperature; for Relative Lipase Enzyme Activity in a Use Solution of the All Ash Detergent Composition: Table 6F, all ash formula, 120º F.; for Relative Lipase Enzyme Activity: base formula
Protocol: The enzyme […] collected up to 4 hours, after a use solution was generated from the detergent composition. During the tests, the samples at different time points were collected and immediately frozen in an acetone/dry ice bath and stored in −80° C. before the activity of the enzyme was evaluated. For the use of such an assay, t=0 min was the reference point for 100% enzyme activity.
(§1) Assays of enzyme activity in formulations (% retention) were conducted to simulate a presoak condition in a beaker using the chemistry, temperature, and pH conditions relevant to manual warewash or presoak applications. Enzyme activity is an indicator of the stability of the enzyme in the detergent, specifically in an aqueous use solution within a sump (which is under conditions of high pH, temperature and dilution).
Enzyme activity under presoak or manual warewash conditions was traced quantitatively using a standard protease assay. Samples were prepared under bench top conditions, whereby the use solution from a detergent composition or detergent was obtained and maintained at a presoak or manual warewash temperature in a stirring water bath. After the time course for assessing enzyme stability is initiated, aliquots were taken at various time points and flash-frozen. A time=0 sample was prepared for each series by dissolving the detergent formulation at room temperature, mixing thoroughly, and flash freezing. Samples were thawed and diluted as necessary in an assay buffer usually for use in the protease assay. A glycine buffer at pH 9.0 is used here. The assay monitored the direct reaction of the protease on a small, commercially available peptidyl substrate, with liberation of the product providing correlation to the active enzyme content. The product was detected using a plate reader with an appreciable dynamic range (upper absorbance limit of the instrument >3.5). Enzyme activity levels were assessed relative to a calibration curve with average values for replicate tests used to map protease stability under presoak or manual warewash use conditions. Enzyme retention at each time point was calculated as the % enzyme activity relative to the time=0 sample.
The analysis by lipase and amylase assay was conducted similarly, except with a different substrate and buffers. For lipase activity, the substrate is p-nitrophenyl valerate, and for amylase, the substrate is an ethylidene substrate (EPS). The buffer used in lipase assay is TRIS (Tris(hydroxymethyl)aminomethane) buffer at pH 8.0, and in amylase assay HEPES (4-(2-hydroxyethyl)-1-piperazineethanesulfonic acid) buffer at pH 8.0.

[1] = test system: enzyme (protease, amylase, lipase); experiment: Overall effects of phosphonates on enzyme activity (Table 3); format: biochemical; conditions: overall effect of the phosphonate on enzyme activity in the detergent use solution
Protocol: The enzyme activities in the detergents with different phosphonate levels were tested at 4000 ppm in 5 grains per gallon (GPG) water at 120° F. with various time points collected up to 4 hours, after a use solution was generated from the detergent composition. During the tests, the samples at different time points were collected and immediately frozen in an acetone/dry ice bath and stored in −80° C. before the activity of the enzyme was evaluated. For the use of such an assay, t=0 min was the reference point for 100% enzyme activity.
as §1
The relative enzyme activities in a use solution of the tested detergent compositions containing a different phosphonate at different concentrations over a period time are listed in Table 4A-Table 4E, Table 5A-Table 5E, and Table 6A-Table 6F.

[2] = phosphonate 0.3 wt-%, time 90 min
[3] = phosphonate 0.3 wt-%, time 120 min
[4] = phosphonate 0.3 wt-%, time 150 min
[5] = phosphonate 0.3 wt-%, time 180 min
[6] = phosphonate 0.3 wt-%, time 210 min
[7] = phosphonate 0.3 wt-%, time 240 min

O=C(O)CCC(CC(=O)O)(C(=O)O)P(=O)(O)O (stereo not shown) [PBTC, Phosphonebutane tricarboxylic acid]
Relative Lipase Enzyme Activity in a Use Solution (lipase; [2]): 104.82% | Relative Lipase Enzyme Activity in a Use Solution (lipase; [3]): 102.36% | Relative Lipase Enzyme Activity in a Use Solution (lipase; [4]): 105.67% | Relative Lipase Enzyme Activity in a Use Solution (lipase; [5]): 81.94% | Relative Lipase Enzyme Activity in a Use Solution (lipase; [6]): 101.51% | Relative Lipase Enzyme Activity in a Use Solution (lipase; [7]): 110.35% | Relative Lipase Enzyme Activity in a Use Solution of the All Ash Detergent Composition (lipase; phosphonate 0.3 wt-%, time 0 min): 100.00% | Relative Lipase Enzyme Activity in a Use Solution of the All Ash Detergent Composition (lipase; phosphonate 0.3 wt-%, time 5 min): 44.27% | Relative Lipase Enzyme Activity in a Use Solution of the All Ash Detergent Composition (lipase; phosphonate 0.3 wt-%, time 10 min): 26.34% | Relative Lipase Enzyme Activity in a Use Solution of the All Ash Detergent Composition (lipase; phosphonate 0.3 wt-%, time 20 min): 13.39% | Relative Lipase Enzyme Activity in a Use Solution of the All Ash Detergent Composition (lipase; phosphonate 0.3 wt-%, time 40 min): 3.62% | Relative Lipase Enzyme Activity in a Use Solution of the All Ash Detergent Composition (lipase; phosphonate 0.3 wt-%, time 60 min): 1.82% | Relative Lipase Enzyme Activity in a Use Solution of the All Ash Detergent Composition (lipase; [2]): 0.36% | Relative Lipase Enzyme Activity in a Use Solution of the All Ash Detergent Composition (lipase; [3]): 0.52% | Relative Lipase Enzyme Activity in a Use Solution of the All Ash Detergent Composition (lipase; [4]): 2.28% | Relative Lipase Enzyme Activity in a Use Solution of the All Ash Detergent Composition (lipase; [5]): 2.33% | Relative Lipase Enzyme Activity in a Use Solution of the All Ash Detergent Composition (lipase; [6]): 3.25% | Relative Lipase Enzyme Activity in a Use Solution of the All Ash Detergent Composition (lipase; [7]): 3.58% | Relative Lipase Enzyme Activity (lipase; phosphonate 0.3 wt-%, use solution at 120° F., time 0 min): 100.00% | Relative Lipase Enzyme Activity (lipase; phosphonate 0.3 wt-%, use solution at 120° F., time 5 min): 73.63% | Relative Lipase Enzyme Activity (lipase; phosphonate 0.3 wt-%, use solution at 120° F., time 10 min): 66.55% | Relative Lipase Enzyme Activity (lipase; phosphonate 0.3 wt-%, use solution at 120° F., time 20 min): 48.22% | Relative Lipase Enzyme Activity (lipase; phosphonate 0.3 wt-%, use solution at 120° F., time 40 min): 26.23% | Relative Lipase Enzyme Activity (lipase; phosphonate 0.3 wt-%, use solution at 120° F., time 60 min): 15.51% | Relative Lipase Enzyme Activity (lipase; phosphonate 0.3 wt-%, use solution at 120° F., time 90 min): 7.72% | Relative Lipase Enzyme Activity (lipase; phosphonate 0.3 wt-%, use solution at 120° F., time 120 min): 3.90% | Relative Lipase Enzyme Activity (lipase; phosphonate 0.3 wt-%, use solution at 120° F., time 150 min): 2.70% | Relative Lipase Enzyme Activity (lipase; phosphonate 0.3 wt-%, use solution at 120° F., time 180 min): −0.75% | Relative Lipase Enzyme Activity (lipase; phosphonate 0.3 wt-%, use solution at 120° F., time 210 min): −1.86% | Relative Lipase Enzyme Activity (lipase; phosphonate 0.3 wt-%, use solution at 120° F., time 240 min): −2.20% | Relative Lipase Enzyme Activity (lipase; phosphonate 0.6 wt-%, use solution at 120º F., time 0 min): 100.00% | Relative Lipase Enzyme Activity (lipase; phosphonate 0.6 wt-%, use solution at 120º F., time 5 min): 61.52% | Relative Lipase Enzyme Activity (lipase; phosphonate 0.6 wt-%, use solution at 120º F., time 10 min): 62.20% | Relative Lipase Enzyme Activity (lipase; phosphonate 0.6 wt-%, use solution at 120º F., time 20 min): 44.99% | Relative Lipase Enzyme Activity (lipase; phosphonate 0.6 wt-%, use solution at 120º F., time 40 min): 31.89% | Relative Lipase Enzyme Activity (lipase; phosphonate 0.6 wt-%, use solution at 120º F., time 60 min): 23.30% | Relative Lipase Enzyme Activity (lipase; phosphonate 0.6 wt-%, use solution at 120º F., time 90 min): 16.36% | Relative Lipase Enzyme Activity (lipase; phosphonate 0.6 wt-%, use solution at 120º F., time 120 min): 12.11% | Relative Lipase Enzyme Activity (lipase; phosphonate 0.6 wt-%, use solution at 120º F., time 150 min): 9.68% | Relative Lipase Enzyme Activity (lipase; phosphonate 0.6 wt-%, use solution at 120º F., time 180 min): 6.06% | Relative Lipase Enzyme Activity (lipase; phosphonate 0.6 wt-%, use solution at 120º F., time 210 min): 6.80% | Relative Lipase Enzyme Activity (lipase; phosphonate 0.6 wt-%, use solution at 120º F., time 240 min): 5.96% | Relative Lipase Enzyme Activity (lipase; phosphonate at 0.1% elemental phosphorus, at 120º F. or at room temperature (as titled), time 0 min): 100.00% | Relative Lipase Enzyme Activity (lipase; phosphonate at 0.1% elemental phosphorus, at 120º F. or at room temperature (as titled), time 5 min): 87.75% | Relative Lipase Enzyme Activity (lipase; phosphonate at 0.1% elemental phosphorus, at 120º F. or at room temperature (as titled), time 10 min): 73.69% | Relative Lipase Enzyme Activity (lipase; phosphonate at 0.1% elemental phosphorus, at 120º F. or at room temperature (as titled), time 20 min): 56.53% | Relative Lipase Enzyme Activity (lipase; phosphonate at 0.1% elemental phosphorus, at 120º F. or at room temperature (as titled), time 40 min): 25.32% | Relative Lipase Enzyme Activity (lipase; phosphonate at 0.1% elemental phosphorus, at 120º F. or at room temperature (as titled), time 60 min): 19.97% | Relative Lipase Enzyme Activity (lipase; phosphonate at 0.1% elemental phosphorus, at 120º F. or at room temperature (as titled), time 90 min): 15.95% | Relative Lipase Enzyme Activity (lipase; phosphonate at 0.1% elemental phosphorus, at 120º F. or at room temperature (as titled), time 120 min): 12.52% | Relative Lipase Enzyme Activity (lipase; phosphonate at 0.1% elemental phosphorus, at 120º F. or at room temperature (as titled), time 150 min): 11.11% | Relative Lipase Enzyme Activity (lipase; phosphonate at 0.1% elemental phosphorus, at 120º F. or at room temperature (as titled), time 180 min): 10.01% | Relative Lipase Enzyme Activity (lipase; phosphonate at 0.1% elemental phosphorus, at 120º F. or at room temperature (as titled), time 210 min): 9.16% | Relative Lipase Enzyme Activity (lipase; phosphonate at 0.1% elemental phosphorus, at 120º F. or at room temperature (as titled), time 240 min): 9.12% | Stability (effects on enzyme activity) [1]: No
